Reference: patent publication US7452997B2 (priority 2004, dated 2008)
Read-outs that look alike come from different tables or passages of the source.

Experiments:
human CB2 receptor [1] = biological target: T1, human CB2 receptor (Homo sapiens, UniProt P34972); assay: Binding assay, cannabinoid CB2 receptor ([3H]-CP-55,940 displacement); details: SK-N-MC cell membranes, radioligand CP-55,940 0.2 nM
In short: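 Displacement of [3H]-CP-55,940 (0.2 nM) was measured over 90 min at 30 °C (pH 7.5 Tris/MgCl2/EDTA buffer with BSA), using semi-purified membranes of human CB2-transfected SK-N-MC cells. Bound counts collected on GF/C filters, 10 uM WIN 55,212 as nonspecific control; IC50 from varied concentrations.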

human CB1 receptor [2] = biological target: T2, human CB1 receptor (Homo sapiens, UniProt P21554); assay: biochemical; format: binding
T2 construct: expressed in transfected cells; host or cells: SK-N-MC cells, stably transfected with pcDNA3 CB-1 (human); semi-purified membrane pellet
In short: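 Radioligand binding was run at 30° C for 90 minutes, pH 7.5 Tris buffer containing 0.5 mg/mL fatty acid free BSA, on semi-purified membranes of stably transfected SK-N-MC cells. Filter-bound radioactivity was scintillation counted, with IC50 obtained by linear regression across compound concentrations.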

human CB1 receptor [3] = biological target: T2, human CB1 receptor; assay: Functional cell-based assay, CB1 receptor mediated change in CRE β-gal expression (agonist / inverse agonist)
Description: (§1) Functional Cell-Based Assay for CB1 or CB2 Agonist and Inverse Agonist Effects on Intra-Cellular Adenylate Cyclase Activity
(§2) The CB1 and CB2 receptors are G-protein coupled receptors (GPCR) which influence cell function via the Gi-protein. These receptors modulate the activity of intracellular adenylate cyclase which in turn produces the intracellular signal messenger cyclic-AMP (cAMP).
(§3) At baseline, or during non-ligand bound conditions, these receptors are constitutively active and tonically suppress adenylate cyclase activity. The binding of an agonists causes further receptor activation and produces additional suppression of adenylate cyclase activity. The binding of an inverse agonist inhibits the constitutive activity of the receptors and results in an increase in adenylate cyclase activity.
(§4) By monitoring intracellular adenylate cyclase activity, the ability of compounds to act as agonists or inverse agonists can be determined.
(§5) Test compounds were evaluated in SK-N-MC cells which, using standard transfection procedures, were stably transfected with human cDNA for pcDNA3-CRE β-gal and pcDNA3 CB1 receptor (human) or pcDNA3 CB2 receptor (human). By expressing CRE β-gal, the cells produced β-galactosidase in response to CRE promoter activation by cAMP. Cells expressing CRE β-gal and either the human CB1 or CB2 receptor will produce less β-galactosidase when treated with a CB1/CB2 agonist and will produce more β-galactosidase when treated with a CB1/CB2 inverse agonist.
(§6) The cells were grown in 96-well plates under standard cell culture conditions at 37° C. in a 5% CO2 atmosphere. After 3 days, the media was removed and a test compound in media (wherein the media was supplemented with 2 mM L-glutamine, […] sodium pyruvate, 0.1% low fatty acid FBS (fetal bovine serum) and antibiotics) was added to the cell. The plates were incubated for 30 minutes at 37° C. and the plate cells were then treated with forskolin over a 4-6 hour period, then washed and lysed. The β-galactosidase activity was quantitated using commercially available kit reagents (Promega Corp. Madison, Wis.) and a VMAX Plate Reader (Molecular Devices, Inc).
(§7) The change in β-galactosidase activity was determined by setting a vehicle treated cell's activity value at 100% and expressing the β-galactosidase activity measured in a corresponding compound treated cell as a percent of the vehicle treated cell activity.
(§8) The EC50 values for compounds tested were calculated by linear regression and were obtained from studies in which varying compound concentrations were used.

human CB2 receptor [4] = biological target: T1, human CB2 receptor; assay: Functional cell-based assay, CB2 receptor mediated change in CRE β-gal expression (agonist / inverse agonist); details: SK-N-MC cells, forskolin
Description: as §1, §2, §3, §4, §5, §6
For cells expressing CRE β-gal and the CB2 receptor, CB2 agonists reduced β-galactosidase activity in a dose-dependent manner and CB2 inverse agonists increased β-galactosidase activity in a dose-dependent manner.
as §7, §8

[5] = Cannabinoid CB2 Receptor Binding IC50, human CB2 receptor
[6] = SK-N-MC cells, CRE β-gal, human CB1 receptor, forskolin, inverse agonist, read-out: CB1 Receptor Functional Inverse Agonist EC50
[7] = inverse agonist, read-out: CB2 Receptor Functional Inverse Agonist EC50
[8] = agonist, read-out: CB2 Receptor Functional Agonist EC50

T2 sequence (P21554 whole entry): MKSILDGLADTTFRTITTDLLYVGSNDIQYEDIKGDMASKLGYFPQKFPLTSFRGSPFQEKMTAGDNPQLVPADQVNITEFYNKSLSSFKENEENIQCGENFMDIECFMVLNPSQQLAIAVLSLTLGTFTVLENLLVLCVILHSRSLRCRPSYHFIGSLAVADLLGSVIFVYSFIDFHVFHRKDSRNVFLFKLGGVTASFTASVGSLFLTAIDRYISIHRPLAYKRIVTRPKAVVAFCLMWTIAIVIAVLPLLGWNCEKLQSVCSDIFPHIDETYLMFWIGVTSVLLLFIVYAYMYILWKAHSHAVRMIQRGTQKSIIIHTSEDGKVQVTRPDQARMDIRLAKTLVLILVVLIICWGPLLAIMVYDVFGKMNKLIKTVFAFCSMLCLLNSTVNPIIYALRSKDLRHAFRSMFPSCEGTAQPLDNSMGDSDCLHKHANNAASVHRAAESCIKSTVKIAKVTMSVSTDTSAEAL
T1 sequence (P34972 whole entry): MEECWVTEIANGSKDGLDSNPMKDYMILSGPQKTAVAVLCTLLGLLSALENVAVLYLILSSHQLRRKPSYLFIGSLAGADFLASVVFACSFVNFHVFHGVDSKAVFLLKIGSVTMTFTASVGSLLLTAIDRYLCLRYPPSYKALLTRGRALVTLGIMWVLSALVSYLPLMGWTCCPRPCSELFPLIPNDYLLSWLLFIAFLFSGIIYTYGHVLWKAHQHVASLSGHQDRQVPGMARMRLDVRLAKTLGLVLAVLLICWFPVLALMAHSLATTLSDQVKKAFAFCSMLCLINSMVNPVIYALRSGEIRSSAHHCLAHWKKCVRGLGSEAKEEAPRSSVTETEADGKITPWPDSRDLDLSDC

Row | Structure (SMILES) | IC50 (human CB2 receptor [1]; [5]) [nM] | IC50 (human CB1 receptor [2]) [nM] | EC50 (human CB1 receptor [3]) [nM] | also measured
1 | CCOC(=O)[C@@H]1CCCC[C@@H]1NC(=O)c1nn(Cc2ccccc2)c2c1CCCC2 (relative stereo) [compound 38] | 3.3 | 6 | 103 | –
2 | CC(NS(=O)(=O)C=Cc1nn(-c2ccc(F)cc2)c2c1CCCC2CCc1ccccc1)c1ccccc1 (stereo not shown) [Cpd 258, 2-[1-(4-fluoro-phenyl)-7-phenethyl-4,5,6,7-tetrahydro-1H-indazol-3-yl]-ethenesulfonic acid (1-phenyl-ethyl)-amide] | – | – | 480 | –
3 | CC(NS(=O)(=O)C=Cc1nn(-c2ccc(F)cc2)c2c1CCCC2CCc1ccccc1)C1CCCCC1 (stereo not shown) [Cpd 259, 2-[1-(4-fluoro-phenyl)-7-phenethyl-4,5,6,7-tetrahydro-1H-indazol-3-yl]-ethenesulfonic acid (1-cyclohexyl-ethyl)-amide] | – | – | – | EC50 (human CB1 receptor [3]; [6]): 610 nM
4 | O=C(NN1CCCCC1)c1nn(-c2ccc(Cl)cc2Cl)c2c1CCCC2=Cc1ccc(F)cc1 [Cpd 297, 1-(2,4-dichloro-phenyl)-7-(4-fluoro-benzylidene)-4,5,6,7-tetrahydro-1H-indazole-3-carboxylic acid piperidin-1-ylamide] | – | 13 | 5 | –
5 | COc1cccc(C2CCCc3c(C(=O)N[C@H](CCl)c4ccccc4)nn(-c4ccc(Cl)cc4Cl)c32)c1 (stereo partly drawn) [Cpd 316, 1-(2,4-dichloro-phenyl)-7-(3-methoxy-phenyl)-4,5,6,7-tetrahydro-1H-indazole-3-carboxylic acid [(1S)-2-chloro-1-phenyl-ethyl]-amide] | – | – | 46 | –
6 | COc1ccc(-n2nc(C(=O)NCCc3ccc(N)cc3)c3c2CCCC3)cc1 [compound 7] | – | – | – | IC50 (human CB2 receptor [1]; human CB2 receptor, read-out: Cannabinoid CB2 Receptor Binding IC50): 3570 nM; IC50 (human CB1 receptor [2]; human CB1 receptor, SK-N-MC cell membranes, radioligand CP-55,940 0.2 nM, read-out: Cannabinoid CB1 Receptor Binding IC50): 3100 nM; EC50 (human CB1 receptor [3]; [6]): 3880 nM
7 | COc1ccc(-n2nc(C(=O)NC3C4(C)CCC(C4)C3(C)C)c3c2CCCC3)cc1 (stereo not shown) [compound 9] | 11.9 | 338 | 2750 | –
8 | CCOC(=O)[C@@H]1CCCC[C@@H]1NC(=O)c1nn(-c2ccc(F)cc2)c2c1CCCC2 [compound 33] | 8 | 58 | 135 | –
9 | CCOC(=O)C1C2CCC(C2)C1NC(=O)c1nn(Cc2ccccc2)c2c1CCCC2 (stereo not shown) [compound 43] | 1 | 14 | 295 | –
10 | CCOC(=O)C1CCCc2c1c(C(=O)NC1C3(C)CCC(C3)C1(C)C)nn2C1CCCCC1 (stereo not shown) [compound 73] | 295 | 760 | 1740 | –
11 | CCOC(=O)C1CCc2nn(-c3ccccc3)c(C(=O)NC34CC5CC(CC(C5)C3)C4)c2C1 (stereo not shown) [compound 91] | – | – | 3370 | –
12 | CC12CCC(C1)C(C)(C)C2NC(=O)c1nn(-c2ccc(F)cc2)c2c1CCCC2c1ccccc1 (stereo not shown) [compound 144] | 40 | 220 | 176 | –
13 | CC(NC(=O)c1nn(-c2ccc(F)cc2)c2c1CCCC2c1ccccc1)C12CC3CC(CC(C3)C1)C2 (stereo not shown) [compound 146] | – | – | 1520 | –
14 | CCOC(=O)[C@H]1C2CCC(C2)[C@H]1NC(=O)c1nn(-c2ccc(F)cc2)c2c1CCCC2c1ccccc1 (stereo partly shown) [compound 147] | 1790 | 2080 | 152 | –
15 | CC12CCC(C1)C(C)(C)C2NC(=O)c1nn(-c2ccc(F)cc2)c2c1CCCC2CCc1ccccc1 (stereo not shown) [compound 151] | 30 | 590 | 801 | –
16 | O=C(NC12CC3CC(CC(C3)C1)C2)c1nn(-c2ccc(F)cc2)c2c1CCCC2c1ccccc1 (stereo not shown) [compound 165] | 800 | – | 1030 | –
17 | CCNC(=O)[C@@H]1C2CCC(C2)[C@@H]1NC(=O)c1nn(Cc2ccccc2)c2c1CCCC2 (stereo partly shown) [compound 167] | 28 | 1660 | 3360 | –
18 | CCOC(=O)[C@@H]1CCc2c(c(C(=O)NC(C)C34CC5CC(CC(C5)C3)C4)nn2C2CCCCC2)C1 (stereo partly shown) [compound 214] | 15.3 | 1230 | – | EC50 (human CB2 receptor [4]; [7]): 120 nM
19 | CC12CCC(C1)C(C)(C)[C@@H]2NC(=O)c1nn(Cc2ccccc2)c2c1CCCC2 (stereo partly shown) [compound 217] | 0.1 | 2.6 | – | EC50 (human CB2 receptor [4]; [8]): 0.052 nM

Row | Structure (SMILES) | IC50 (human CB2 receptor [1]; [5]) [nM] | IC50 (human CB1 receptor [2]) [nM] | EC50 (human CB1 receptor [3]) [nM] | also measured
20 | COC(=O)[C@H]1CCc2c(c(C(=O)NC3C4CC5CC(C4)CC3C5)nn2C2CCCCC2)C1 (stereo partly shown) [compound 218] | 3 | 400 | – | EC50 (human CB2 receptor [4]; [7]): 6 nM
21 | COC(=O)[C@@H]1CCc2c(c(C(=O)NC3C4CC5CC(C4)CC3C5)nn2C2CCCCC2)C1 (stereo partly shown) [compound 219] | 4 | 100 | – | EC50 (human CB2 receptor [4]; [7]): 320 nM
22 | CC(C)OC(=O)C1CCc2c(c(C(=O)NC3C4CC5CC(C4)CC3C5)nn2C2CCCCC2)C1 (stereo not shown) [compound 232] | 30 | 2400 | – | EC50 (human CB2 receptor [4]; [7]): 360 nM
23 | CC(NC(=O)c1nn(Cc2ccccc2)c2c1CCCC2c1ccccc1)c1ccccc1 (stereo not shown) [compound 253] | 300 | 25 | 1940 | –
24 | CCOC(=O)C1CCc2c(c(C(=O)NC(C)c3ccccc3)nn2Cc2ccccc2)C1 (stereo not shown) [compound 256] | 300 | 260 | 250 | –
25 | CCOC(=O)[C@@H]1C2CCC(C2)[C@@H]1NC(=O)c1nn(C2CCCCC2)c2c1CCCC2 (stereo partly shown) [compound 278] | 37.5 | 403 | – | EC50 (human CB2 receptor [4]; [8]): 0.78 nM
26 | CCOC(=O)C1CCc2c(C(=O)N[C@H](C)C3CCCCC3)nn(C3CCCCC3)c2C1 (stereo partly shown) [compound 284] | 45 | 350 | – | EC50 (human CB2 receptor [4]; [7]): 360 nM
27 | O=C(NN1CCCCC1)c1nn(-c2ccc(Cl)cc2Cl)c2c1CCC/C2=C\c1ccc(Cl)cc1 [compound 290] | 1000 | 25 | 44 | –
28 | O=C(NN1CCOCC1)c1nn(-c2ccc(Cl)cc2Cl)c2c1CCC/C2=C\c1ccc(Cl)cc1 [compound 291] | 1700 | 180 | 10 | –
29 | CC1(C)[C@@H]2CC[C@@](C)(C2)[C@H]1NC(=O)c1nn(-c2ccc(Cl)cc2Cl)c2c1CCC/C2=C\c1ccc(Cl)cc1 [compound 292] | 60 | 33 | 9 | –
30 | C[C@@H](NC(=O)c1nn(-c2ccc(Cl)cc2Cl)c2c1CCC/C2=C\c1ccc(Cl)cc1)C1CCCCC1 [compound 293] | 600 | 6 | 25 | –
31 | C[C@@H](NC(=O)c1nn(-c2ccc(Cl)cc2Cl)c2c1CCC/C2=C\c1ccc(F)cc1)C1CCCCC1 [compound 295] | – | 3 | < 30 | –
32 | C[C@@H](NC(=O)c1nn(-c2ccc(Cl)cc2Cl)c2c1CCC/C2=C\c1ccc(F)cc1)c1ccccc1 [compound 296] | – | 5 | 13 | –
33 | O=C(NN1CCOCC1)c1nn(-c2ccc(Cl)cc2Cl)c2c1CCC/C2=C\c1ccc(F)cc1 [compound 298] | – | 64 | 4 | –
34 | C[C@@H](NC(=O)c1nn(-c2ccc(Cl)cc2Cl)c2c1CCC/C2=C\c1ccc(Cl)cc1)c1ccccc1 [compound 307] | – | – | 100 | –
35 | C[C@H](NC(=O)c1nn(-c2ccc(Cl)cc2Cl)c2c1CCCC2=Cc1ccc(F)cc1)C1CCCCC1 [compound 309] | – | 47 | 81 | –
36 | COc1cccc(C2CCCc3c(C(=O)N[C@H](C)c4ccccc4)nn(-c4ccc(Cl)cc4Cl)c32)c1 (stereo partly shown) [compound 312] | – | – | 36 | –
37 | O=C(NCc1ccccn1)c1nn(-c2ccc(Cl)cc2Cl)c2c1CCCC2=Cc1ccc(Cl)cc1 [compound 319] | – | – | 50 | –
38 | CC(NC(=O)c1nn(-c2ccc(Cl)cc2Cl)c2c1CCC/C2=C\c1ccc(Cl)cc1)c1ccccn1 (stereo not shown) [compound 320] | – | 14 | 1 | –
